Results taken from US20230085307A1, “PYRIDAZINONE COMPOUND AND HERBICIDE” (NISSAN CHEMICAL CORPORATION, priority 2019, published 2023).

Experiments:
late watergrass = experiment: Test Example 1: herbicidal activity, application before weed generation under submerged conditions (Table 16, symbol A); format: in vivo, late watergrass (Echinochloa oryzicola); conditions: 320 g/ha applied herbicide
Procedure, shortened: (§1)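 Submerged Wagner pots (alluvial soil, 4 cm water) sown with weed seeds and planted with 2.5-leaf rice seedlings; emulsifiable concentrate diluted in water applied to water surface on sowing day. Held in greenhouse at 25-30 °C; injury scored 0-5 by herbicidal rate after three weeks.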

oval-leafed pondweed = experiment: Test Example 1: herbicidal activity, application before weed generation under submerged conditions (Table 16, symbol C); format: in vivo, oval-leafed pondweed (Monochoria vaginalis); conditions: 320 g/ha applied herbicide
Procedure, shortened: as §1

Japanese bulrush = experiment: Test Example 2: herbicidal activity, application during weed generation under submerged conditions (Table 17, symbol B); format: in vivo, Japanese bulrush (Schoenoplectus juncoides); conditions: AAH 320 g/ha; application during weed generation, submerged conditions
Procedure, shortened: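 3-wk visual-criteria score after one water-surface dose. Emulsion formulation, water-diluted to set rate; applied at 1–2 leaf stage; alluvial soil, 4 cm standing water; seeds co-sown; greenhouse 25–30° C.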

barnyard grass [1] = experiment: Test Example 3: herbicidal effect by foliage application, Wagner pot (Table 18, symbol H); format: in vivo, barnyard grass (Echinochloa crus-galli); conditions: for herbicidal effect on H (barnyard grass), rating 0-5: 320 g/ha
Procedure, shortened: (§2)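 Plants were sown in alluvial soil held under 0.1–0.5 cm standing water and grown 14 days in a greenhouse at 25–30 °C. An emulsifiable formulation, water-diluted to the set dose, was then sprayed onto the foliage, and effects were scored three weeks later using previously defined criteria.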

rice flat sedge = experiment: Test Example 3: herbicidal effect by foliage application, Wagner pot (Table 18, symbol E); format: in vivo, rice flat sedge (Cyperus iria); conditions: for herbicidal effect on E (rice flat sedge), rating 0-5: 320 g/ha
Procedure, shortened: as §2

green foxtail [2] = experiment: Test Example 4: herbicidal effect by soil treatment (Table 19, symbol G); format: in vivo, green foxtail (Setaria viridis)
Procedure, shortened: (§3)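 Soil-surface application: an emulsion agent diluted with water to the predetermined dose is sprayed uniformly over seeds lying under roughly 1.5 cm of sterilized diluvial soil. Boxes stay in a greenhouse at 25° C. to 30° C. Three weeks later, each species is graded on previously defined criteria.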

barnyard grass [3] = experiment: Test Example 4: herbicidal effect by soil treatment (Table 19, symbol H); format: in vivo, barnyard grass (Echinochloa crus-galli)
Procedure, shortened: as §3

velvetleaf = experiment: Test Example 4: herbicidal effect by soil treatment (Table 19, symbol M); format: in vivo, velvetleaf (Abutilon theophrasti)
Procedure, shortened: as §3

redroot pigweed [4] = experiment: Test Example 4: herbicidal effect by soil treatment (Table 19, symbol N); format: in vivo, redroot pigweed (Amaranthus retroflexus)
Procedure, shortened: as §3

chickweed [5] = experiment: Test Example 4: herbicidal effect by soil treatment (Table 19, symbol P); format: in vivo, common chickweed (Stellaria media)
Procedure, shortened: as §3

southern crabgrass = experiment: Test Example 5: herbicidal effect by foliage application, plastic box (Table 20, symbol F); format: in vivo, southern crabgrass (Digitaria ciliaris); conditions: foliage application
Procedure, shortened: (§4)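 Sow seeds spot-wise in sterilized diluvial soil; cover with ~1.5 cm soil. Grow 14 days in greenhouse, 25° C. to 30° C. Spray foliage with emulsion diluted to predetermined amount. Rate effect after 3 weeks.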

green foxtail [6] = experiment: Test Example 5: herbicidal effect by foliage application, plastic box (Table 20, symbol G); format: in vivo, green foxtail (Setaria viridis); conditions: foliage application
Procedure, shortened: as §4

blackgrass = experiment: Test Example 5: herbicidal effect by foliage application, plastic box (Table 20, symbol J); format: in vivo, blackgrass (Alopecurus myosuroides); conditions: foliage application
Procedure, shortened: as §4

Italian ryegrass = experiment: Test Example 5: herbicidal effect by foliage application, plastic box (Table 20, symbol K); format: in vivo, Italian ryegrass (Lolium multiflorum); conditions: foliage application
Procedure, shortened: as §4

redroot pigweed [7] = experiment: Test Example 5: herbicidal effect by foliage application, plastic box (Table 20, symbol N); format: in vivo, redroot pigweed (Amaranthus retroflexus); conditions: foliage application
Procedure, shortened: as §4

chickweed [8] = experiment: Test Example 5: herbicidal effect by foliage application, plastic box (Table 20, symbol P); format: in vivo, common chickweed (Stellaria media); conditions: foliage application
Procedure, shortened: as §4

[9] = amount of applied herbicide 320 g/ha
[10] = 320 g/ha, three weeks after application
[11] = 320 g/ha, evaluated three weeks after application
[12] = AAH 320 g/ha, evaluated three weeks after application
[13] = AAH 320 g/ha, three weeks after application

CCCC(=O)Oc1c(C)nn(C)c(=O)c1-c1c(-c2ccc(OC(C)C)cc2)sc2ccccc12 [1-021]
Herbicidal effect on A: late watergrass (grade 0-5) (late watergrass): 4 (Herbicidal rate of 70% or more and less than 90%)
Herbicidal effect on C: oval-leafed pondweed (grade 0-5) (oval-leafed pondweed): 4 (Herbicidal rate of 70% or more and less than 90%)
herbicidal effect rating, B: Japanese bulrush (Japanese bulrush): 3 (Herbicidal rate of 40% or more and less than 70%)
herbicidal effect on H (barnyard grass), rating 0-5 (barnyard grass [1]): 5 (Herbicidal rate of 90% or more (almost completely withered))
herbicidal effect on E (rice flat sedge), rating 0-5 (rice flat sedge): 5 (Herbicidal rate of 90% or more (almost completely withered))
herbicidal effect rating, G: green foxtail (green foxtail [2]; [9]): 1 (Herbicidal rate of 5% or more and less than 20%)
herbicidal effect rating, H: barnyard grass (barnyard grass [3]; [9]): 0 (Herbicidal rate of 5% or less (almost no effect))
herbicidal effect rating, M: velvetleaf (velvetleaf; [9]): 3 (Herbicidal rate of 40% or more and less than 70%)
herbicidal effect rating, N: redroot pigweed (redroot pigweed [4]; [9]): 0 (Herbicidal rate of 5% or less (almost no effect))
herbicidal effect rating, P: chickweed (chickweed [5]; [9]): 5 (Herbicidal rate of 90% or more (almost completely withered))
herbicidal effect grade, F: southern crabgrass (southern crabgrass; [10]): 3 (Herbicidal rate of 40% or more and less than 70%)
herbicidal effect grade, G: green foxtail (green foxtail [6]; [10]): 4 (Herbicidal rate of 70% or more and less than 90%)
herbicidal effect grade, J: blackgrass (blackgrass; [10]): 1 (Herbicidal rate of 5% or more and less than 20%)
herbicidal effect grade, K: Italian ryegrass (Italian ryegrass; [10]): 3 (Herbicidal rate of 40% or more and less than 70%)
herbicidal effect grade, N: redroot pigweed (redroot pigweed [7]; [10]): 4 (Herbicidal rate of 70% or more and less than 90%)
herbicidal effect grade, P: chickweed (chickweed [8]; [10]): 5 (Herbicidal rate of 90% or more (almost completely withered))

CCCC(=O)Oc1c(C)nn(C)c(=O)c1-c1c(-c2ccc3c(c2)OCO3)sc2ccc(F)cc12 [2-091]
Herbicidal effect on A: late watergrass (grade 0-5) (late watergrass): 3 (Herbicidal rate of 40% or more and less than 70%)
Herbicidal effect on C: oval-leafed pondweed (grade 0-5) (oval-leafed pondweed): 5 (Herbicidal rate of 90% or more (almost completely withered))
herbicidal effect rating, B: Japanese bulrush (Japanese bulrush): 3 (Herbicidal rate of 40% or more and less than 70%)
herbicidal effect on H (barnyard grass), rating 0-5 (barnyard grass [1]): 3 (Herbicidal rate of 40% or more and less than 70%)
herbicidal effect on E (rice flat sedge), rating 0-5 (rice flat sedge): 5 (Herbicidal rate of 90% or more (almost completely withered))
herbicidal effect rating, G: green foxtail (green foxtail [2]; 320 g/ha): 3 (Herbicidal rate of 40% or more and less than 70%)
herbicidal effect rating, H: barnyard grass (barnyard grass [3]; 320 g/ha): 2 (Herbicidal rate of 20% or more and less than 40%)
herbicidal effect rating, M: velvetleaf (velvetleaf; 320 g/ha): 5 (Herbicidal rate of 90% or more (almost completely withered))
herbicidal effect rating, N: redroot pigweed (redroot pigweed [4]; 320 g/ha): 5 (Herbicidal rate of 90% or more (almost completely withered))
herbicidal effect rating, P: chickweed (chickweed [5]; 320 g/ha): 1 (Herbicidal rate of 5% or more and less than 20%)
herbicidal effect on F: southern crabgrass (southern crabgrass; [11]): 2 (Herbicidal rate of 20% or more and less than 40%)
herbicidal effect on G: green foxtail (green foxtail [6]; [11]): 1 (Herbicidal rate of 5% or more and less than 20%)
herbicidal effect on J: blackgrass (blackgrass; [11]): 3 (Herbicidal rate of 40% or more and less than 70%)
herbicidal effect on K: Italian ryegrass (Italian ryegrass; [11]): 4 (Herbicidal rate of 70% or more and less than 90%)
herbicidal effect on N: redroot pigweed (redroot pigweed [7]; [11]): 3 (Herbicidal rate of 40% or more and less than 70%)
herbicidal effect on P: chickweed (chickweed [8]; [11]): 5 (Herbicidal rate of 90% or more (almost completely withered))

COCCSCc1ccc(-c2sc3ccc(F)cc3c2-c2c(O)c(C)nn(C)c2=O)cc1 [2-327]
Herbicidal effect on A: late watergrass (grade 0-5) (late watergrass): 3 (Herbicidal rate of 40% or more and less than 70%)
Herbicidal effect on C: oval-leafed pondweed (grade 0-5) (oval-leafed pondweed): 3 (Herbicidal rate of 40% or more and less than 70%)
herbicidal effect rating, B: Japanese bulrush (Japanese bulrush): 2 (Herbicidal rate of 20% or more and less than 40%)
herbicidal effect on H: barnyard grass (barnyard grass [1]; [9]): 5 (Herbicidal rate of 90% or more (almost completely withered))
herbicidal effect on E: rice flat sedge (rice flat sedge; [9]): 4 (Herbicidal rate of 70% or more and less than 90%)
herbicidal effect on G: green foxtail (green foxtail [2]; [9]): 4 (Herbicidal rate of 70% or more and less than 90%)
herbicidal effect on H: barnyard grass (barnyard grass [3]; [9]): 3 (Herbicidal rate of 40% or more and less than 70%)
herbicidal effect on M: velvetleaf (velvetleaf; [9]): 1 (Herbicidal rate of 5% or more and less than 20%)
herbicidal effect on N: redroot pigweed (redroot pigweed [4]; [9]): 4 (Herbicidal rate of 70% or more and less than 90%)
herbicidal effect on P: chickweed (chickweed [5]; [9]): 1 (Herbicidal rate of 5% or more and less than 20%)
F: southern crabgrass, herbicidal effect (criteria 0-5) (southern crabgrass; [12]): 4 (Herbicidal rate of 70% or more and less than 90%)
G: green foxtail, herbicidal effect (criteria 0-5) (green foxtail [6]; [12]): 5 (Herbicidal rate of 90% or more (almost completely withered))
J: blackgrass, herbicidal effect (criteria 0-5) (blackgrass; [12]): 4 (Herbicidal rate of 70% or more and less than 90%)
K: Italian ryegrass, herbicidal effect (criteria 0-5) (Italian ryegrass; [12]): 4 (Herbicidal rate of 70% or more and less than 90%)
N: redroot pigweed, herbicidal effect (criteria 0-5) (redroot pigweed [7]; [12]): 5 (Herbicidal rate of 90% or more (almost completely withered))
P: chickweed, herbicidal effect (criteria 0-5) (chickweed [8]; [12]): 5 (Herbicidal rate of 90% or more (almost completely withered))

CCCC(=O)Oc1c(C)nn(C)c(=O)c1-c1c(-c2ccc(C(F)(F)F)cc2)sc2ccccc12 [1-130]
Herbicidal effect on A: late watergrass (grade 0-5) (late watergrass): 3 (Herbicidal rate of 40% or more and less than 70%)
Herbicidal effect on C: oval-leafed pondweed (grade 0-5) (oval-leafed pondweed): 3 (Herbicidal rate of 40% or more and less than 70%)
herbicidal effect rating, B: Japanese bulrush (Japanese bulrush): 2 (Herbicidal rate of 20% or more and less than 40%)
herbicidal effect on H (barnyard grass), rating 0-5 (barnyard grass [1]): 4 (Herbicidal rate of 70% or more and less than 90%)
herbicidal effect on E (rice flat sedge), rating 0-5 (rice flat sedge): 5 (Herbicidal rate of 90% or more (almost completely withered))
G: green foxtail, herbicidal effect rating (green foxtail [2]; AAH 320 g/ha): 3 (Herbicidal rate of 40% or more and less than 70%)
H: barnyard grass, herbicidal effect rating (barnyard grass [3]; AAH 320 g/ha): 3 (Herbicidal rate of 40% or more and less than 70%)
M: velvetleaf, herbicidal effect rating (velvetleaf; AAH 320 g/ha): 1 (Herbicidal rate of 5% or more and less than 20%)
N: redroot pigweed, herbicidal effect rating (redroot pigweed [4]; AAH 320 g/ha): 3 (Herbicidal rate of 40% or more and less than 70%)
P: chickweed, herbicidal effect rating (chickweed [5]; AAH 320 g/ha): 3 (Herbicidal rate of 40% or more and less than 70%)
F: southern crabgrass, herbicidal effect (southern crabgrass; [13]): 0 (Herbicidal rate of 5% or less (almost no effect))
G: green foxtail, herbicidal effect (green foxtail [6]; [13]): 0 (Herbicidal rate of 5% or less (almost no effect))
J: blackgrass, herbicidal effect (blackgrass; [13]): 0 (Herbicidal rate of 5% or less (almost no effect))
K: Italian ryegrass, herbicidal effect (Italian ryegrass; [13]): 5 (Herbicidal rate of 90% or more (almost completely withered))
N: redroot pigweed, herbicidal effect (redroot pigweed [7]; [13]): 4 (Herbicidal rate of 70% or more and less than 90%)
P: chickweed, herbicidal effect (chickweed [8]; [13]): 5 (Herbicidal rate of 90% or more (almost completely withered))
